Measured values as given in patent publication US10399972B2, “Tricyclic compounds as inhibitors of mutant IDH enzymes” (Merck Sharp & Dohme Corp., priority 2015, dated 2019).

biological target: R132H mutant IDH1 enzyme (Homo sapiens (Human), UniProt O75874, R132H); assay: R132H IDH1 Enzymatic Assay; assay type: biochemical; settings: 1.5 nM final, 30 min preincubation, 60 min reaction, Kinase-GLO luminescence
Procedure: R132H IDH1 Enzymatic Assay
Each test compound (10 mM stock in DMSO) is diluted in DMSO to make a 10-point, 3-fold dilution series. 125 nL of each dilution or DMSO alone is dispensed to a 384-well Greiner Lumitrac 200 assay plate using an Echo® Liquid Handler. To each well of the plate is added 20 uL of enzyme in assay buffer or assay buffer alone. Assay buffer consists of 50 mM sodium phosphate, pH 7.0, 50 mM magnesium chloride, 50 mM sodium chloride, and 0.01% (w/v) bovine serum albumin. When present, the R132H mutant IDH1 enzyme is at a working concentration of 1.875 nM (final concentration in assay of 1.5 nM). The assay plate is allowed to incubate for 30 minutes at room temperature and 5 uL of 5× substrate mixture (2.5 uM nicotinamide adenine dinucleotide phosphate, 100 uM adenosine diphosphate, 7.5 mM glyceraldehyde-3-phosphate, 7.5 ug/mL of spinach glyceraldehyde-3-phosphate dehydrogenase, 25 nM phosphoglycerate kinase, and 5 mM alpha-ketoglutarate in assay buffer) is added to all wells. The reaction plate is incubated for 60 minutes followed by addition of 25 uL of Promega Kinase-GLO reagent to all wells and 10-minute incubation.
Luminescence is measured using a PerkinElmer Envision plate reader. The percent activity of each dilution is determined as the ratio of background corrected signal to the background corrected signal of wells receiving only DMSO. IC50 values are determined by fitting percent activity data to a four-parameter logistic dose response equation. The IC50 values of the exemplified compounds are included in Table 8.

Sequence of R132H mutant IDH1 enzyme (O75874 whole entry R132H): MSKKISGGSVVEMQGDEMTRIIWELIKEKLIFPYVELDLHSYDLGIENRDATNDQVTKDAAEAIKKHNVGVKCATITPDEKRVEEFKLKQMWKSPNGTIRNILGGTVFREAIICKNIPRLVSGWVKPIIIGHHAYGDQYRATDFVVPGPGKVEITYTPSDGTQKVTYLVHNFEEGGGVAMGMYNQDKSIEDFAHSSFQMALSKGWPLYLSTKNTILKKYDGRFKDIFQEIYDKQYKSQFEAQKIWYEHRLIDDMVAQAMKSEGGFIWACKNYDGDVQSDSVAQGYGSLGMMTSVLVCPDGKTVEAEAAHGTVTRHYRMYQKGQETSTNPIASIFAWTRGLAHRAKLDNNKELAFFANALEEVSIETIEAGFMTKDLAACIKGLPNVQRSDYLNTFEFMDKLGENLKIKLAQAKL

SMILES	IC50
O=C(C1CCN(CC(F)(F)F)CC1)N1Cc2cccnc2Nc2cc(F)c(N3[C@@H]4CO[C@H]5[C@@H]4OC[C@H]53)cc21 [Example 28, (9-fluoro-8-((3R,3aR,6R,6aR)-hexahydro-3,6-epiminofuro[3,2-b]furan-7-yl)-5,11-dihydro-6H-benzo[b]pyrido[2,3-e][1,4]diazepin-6-yl)(1-(2,2,2-trifluoroethyl)piperidin-4-yl)methanone]	27.6 nM
CO[C@H]1C[C@H]2CC[C@@H](C1)N2c1cc2c(cc1F)Nc1ncc(F)cc1CN2C(=O)C1CCN(CC(F)(F)F)CC1 [Example 30, (3,9-difluoro-8-((1R,3r,5S)-3-methoxy-8-azabicyclo[3.2.1]octan-8-yl)-5,11-dihydro-6H-benzo[b]pyrido[2,3-e][1,4]diazepin-6-yl)(1-(2,2,2-trifluoroethyl)piperidin-4-yl)methanone]	14.1 nM
Cn1nccc1-c1cc2c(cc1F)Nc1ncccc1CN2C(=O)C1CCN(CC(F)(F)F)CC1 [Example 53, (9-fluoro-8-(1-methyl-1H-pyrazol-5-yl)-5,11-dihydro-6H-benzo[b]pyrido[2,3-e][1,4]diazepin-6-yl)(1-(2,2,2-trifluoroethyl)piperidin-4-yl)methanone]	7.2 nM
CC(C)OC1CCC(C(=O)N2c3cc(Cl)ccc3Nc3ncccc3C2C)CC1 (stereo not drawn) [Example 65, (8-Chloro-5-methyl-5,11-dihydro-6H-benzo[b]pyrido[2,3-e][1,4]diazepin-6-yl)(trans-4-isopropoxycyclohexyl)methanone]	106 nM
O=C(C1CCN(CC(F)(F)F)CC1)N1Cc2cc(F)cnc2Nc2cc(F)ccc21 [Example 72, (3,9-Difluoro-5,11-dihydro-6H-benzo[b]pyrido[2,3-e][1,4]diazepin-6-yl)(1-(2,2,2-trifluoroethyl)piperidin-4-yl)methanone]	160 nM
O=C(C1CCN(CC(F)(F)F)CC1)N1Cc2cccnc2Nc2cc(F)c(N3C[C@@H]4C[C@H]3CO4)cc21 [Example 27, (8-((1S,4S)-2-oxa-5-azabicyclo[2.2.1]heptan-5-yl)-9-fluoro-5,11-dihydro-6H-benzo[b]pyrido[2,3-e][1,4]diazepin-6-yl)(1-(2,2,2-trifluoroethyl)piperidin-4-yl)methanone]	27.5 nM
Cn1nccc1-c1cc2c(cc1F)Nc1ncc(F)cc1CN2C(=O)C1CCN(CC(F)(F)F)CC1 [Example 50, (3,9-Difluoro-8-(1-methyl-1H-pyrazol-5-yl)-5,11-dihydro-6H-benzo[b]pyrido[2,3-e][1,4]diazepin-6-yl)(1-(2,2,2-trifluoroethyl)piperidin-4-yl)methanone]	3.5 nM
O=C(C1CCN(CC(F)(F)F)CC1)N1Cc2cc(F)cnc2Nc2cc(F)c(N3[C@@H]4CO[C@H]5[C@@H]4OC[C@H]53)cc21 [Example 22, (3,9-difluoro-8-((3R,3aR,6R,6aR)-hexahydro-3,6-epiminofuro[3,2-b]furan-7-yl)-5,11-dihydro-6H-benzo[b]pyrido[2,3-e][1,4]diazepin-6-yl)(1-(2,2,2-trifluoroethyl)piperidin-4-yl)methanone]	4.2 nM
O=C(C1CCN(CC(F)(F)F)CC1)N1Cc2cc(F)cnc2Nc2cc(F)c(N3CC4(CCCOC4)C3)cc21 [Example 21, (3,9-difluoro-8-(6-oxa-2-azaspiro[3.5]nonan-2-yl)-5,11-dihydro-6H-benzo[b]pyrido[2,3-e][1,4]diazepin-6-yl)(1-(2,2,2-trifluoroethyl)piperidin-4-yl)methanone]	4.5 nM
O=C(C1CCN(CC(F)(F)F)CC1)N1Cc2cc(F)cnc2Nc2cc(F)c(-c3ccn[nH]3)cc21 [Example 51, (3,9-difluoro-8-(1H-pyrazol-5-yl)-5,11-dihydro-6H-benzo[b]pyrido[2,3-e][1,4]diazepin-6-yl)(1-(2,2,2-trifluoroethyl)piperidin-4-yl)methanone]	3.6 nM

Next, values leading:

IC50	SMILES
6 nM	CC(C)O[C@H]1CC[C@@H](C(=O)N2Cc3cc(F)cnc3Nc3ccc(N4C[C@@H]5C[C@H]4CO5)cc32)CC1 [Example 19, (8-((1S,4S)-2-oxa-5-azabicyclo[2.2.1]heptan-5-yl)-3-fluoro-5,11-dihydro-6H-benzo[b]pyrido[2,3-e][1,4]diazepin-6-yl)(cis-4-isopropoxycyclohexyl)methanone]
7.8 nM	CC(C)O[C@H]1CC[C@H](C(=O)N2Cc3cc(F)cnc3Nc3cc(F)c(N4CC5(CCCOC5)C4)cc32)CC1 [Example 25, [3,9-difluoro-8-(6-oxa-2-azaspiro[3.5]non-2-yl)-5,11-dihydro-6H-pyrido[2,3-b][1,5]benzodiazepin-6-yl][trans-4-(propan-2-yloxy)cyclohexyl]methanone]
58.7 nM	Cc1c(N2C[C@@H]3CC[C@H]2CO3)ccc2c1N(C(=O)[C@H]1CC[C@H](OC(C)C)CC1)Cc1cccnc1N2 [Example 59, (trans-4-isopropoxycyclohexyl){7-methyl-8-[(1S,4S)-2-oxa-5-azabicyclo[2.2.2]oct-5-yl]-5,11-dihydro-6H-pyrido[2,3-b][1,5]benzodiazepin-6-yl}methanone]
11.4 nM	CC(C)O[C@H]1CC[C@H](C(=O)N2Cc3cc(F)cnc3Nc3cc(F)c(N4CC5CCC4CO5)cc32)OC1 (stereo partly drawn) [Example 44, (8-(2-oxa-5-azabicyclo[2.2.2]octan-5-yl)-3,9-difluoro-5,11-dihydro-6H-benzo[b]pyrido[2,3-e][1,4]diazepin-6-yl)((2R,5S)-5-isopropoxytetrahydro-2H-pyran-2-yl)methanone]
46.3 nM	CC(C)O[C@H]1CC[C@H](C(=O)N2Cc3cccnc3Nc3cc(F)c(N4C[C@@H]5C[C@H]4CO5)cc32)OC1 [Example 64, (8-((1S,4S)-2-Oxa-5-azabicyclo[2.2.1]heptan-5-yl)-9-fluoro-5H-benzo[b]pyrido[2,3-e][1,4]diazepin-6(11H)-yl)((2R,5S)-5-isopropoxytetrahydro-2H-pyran-2-yl)methanone]
8.6 nM	CC(C)O[C@H]1CC[C@H](C(=O)N2Cc3cc(F)cnc3Nc3ccc(N4C[C@@H]5C[C@H]4CO5)cc32)CC1 [Example 18, (8-((1S,4S)-2-oxa-5-azabicyclo[2.2.1]heptan-5-yl)-3-fluoro-5,11-dihydro-6H-benzo[b]pyrido[2,3-e][1,4]diazepin-6-yl)(trans-4-isopropoxycyclohexyl)methanone]
25.4 nM	O=C(C1CCN(CC(F)(F)F)CC1)N1Cc2cc(F)cnc2Nc2ccc(N3CC4CCC3CO4)cc21 (single isomer, unassigned) [Example 8, (8-(2-oxa-5-azabicyclo[2.2.2]octan-5-yl)-3-fluoro-5,11-dihydro-6H-benzo[b]pyrido[2,3-e][1,4]diazepin-6-yl)(1-(2,2,2-trifluoroethyl)piperidin-4-yl)methanone]
21 nM	CC(C)O[C@H]1CC[C@H](C(=O)N2Cc3cc(F)cnc3Nc3ccc(N4C[C@H]5COC[C@@H](C4)O5)cc32)OC1 [Example 41, (8-((1R,5S)-3,9-dioxa-7-azabicyclo[3.3.1]nonan-7-yl)-3-fluoro-5,11-dihydro-6H-benzo[b]pyrido[2,3-e][1,4]diazepin-6-yl)((2R,5S)-5-isopropoxytetrahydro-2H-pyran-2-yl)methanone]
25.5 nM	CC(C)O[C@H]1CC[C@H](C(=O)N2Cc3cc(F)cnc3Nc3ccc(N4CC5(CCCOC5)C4)cc32)OC1 [Example 40, (3-fluoro-8-(6-oxa-2-azaspiro[3.5]nonan-2-yl)-5,11-dihydro-6H-benzo[b]pyrido[2,3-e][1,4]diazepin-6-yl)((2R,5S)-5-isopropoxytetrahydro-2H-pyran-2-yl)methanone]
54.1 nM	Cc1c(N2C[C@H]3CC[C@@H]2CO3)ccc2c1N(C(=O)[C@H]1CC[C@H](OC(C)C)CC1)Cc1cccnc1N2 [Example 61, (trans-4-isopropoxycyclohexyl){7-methyl-8-[(1R,4R)-2-oxa-5-azabicyclo[2.2.2]oct-5-yl]-5,11-dihydro-6H-pyrido[2,3-b][1,5]benzodiazepin-6-yl}methanone]
23.4 nM	CC(C)O[C@H]1CC[C@H](C(=O)N2Cc3cc(F)cnc3Nc3ccc([C@@H]4COCCO4)cc32)OC1 [Example 34, (8-((R)-1,4-dioxan-2-yl)-3-fluoro-5,11-dihydro-6H-benzo[b]pyrido[2,3-e][1,4]diazepin-6-yl)((2R,5S)-5-isopropoxytetrahydro-2H-pyran-2-yl)methanone]
23 nM	C[C@H]1CN(c2cc3c(cc2F)Nc2ncc(F)cc2CN3C(=O)C2CCN(CC(F)(F)F)CC2)[C@@H](C)CO1 [Example 23, (8-((2S,5S)-2,5-dimethylmorpholino)-3,9-difluoro-5,11-dihydro-6H-benzo[b]pyrido[2,3-e][1,4]diazepin-6-yl)(1-(2,2,2-trifluoroethyl)piperidin-4-yl)methanone]
103 nM	Cc1cnc2c(c1)CN(C(=O)[C@H]1CC[C@H](OC(C)C)CC1)c1cc(N3C[C@@H]4CC[C@H]3CO4)ccc1N2 [Example 69, (8-((1S,4S)-2-Oxa-5-azabicyclo[2.2.2]octan-5-yl)-3-methyl-5,11-dihydro-6H-benzo[b]pyrido[2,3-e][1,4]diazepin-6-yl)(trans-4-isopropoxycyclohexyl)methanone]
